# Results published in patent publication US20240299481A1, “STEPHANIA CEPHARANTHA-DERIVED ALKALOID-CONTAINING PREPARATION” (JAPAN AS REPRESENTED BY DIRECTOR-GENERAL OF NATIONAL …, priority 2021, published 2024).
# Columns and labels:
# VeroE6/TMPRSS2 cells = assay type: cell-based; conditions: 24 hours, FIG. 2A-2E
# Description: VeroE6/TMPRSS2 cells were cultured at 37° C. in 5% of a CO2 atmosphere by using Dulbecco's Modified Eagle's Medium (DMEM, Life Technologies Corporation) added with 10% of a fetal bovine serum (FBS, Cell Culture Bioscience Corporation), 100 units/ml of penicillin, 100 μg/ml of streptomycin, 10 mM of HEPES (pH7.4) and 1 mg/ml of G418 disulfate (Nacalai Tesque, Inc.). In infection tests, it was changed to 2% of FBS and no G418 disulfate was added.
# The Stephania cepharantha-derived alkaloid-containing preparation, Cepharanthine, Isotetrandrine, Cycleanine, or Berbamine were added to the medium of the VeroE6/TMPRSS2 cells and, and the cells cultured for 24 hours were fixed with 4% of paraformaldehyde, and nucleuses were stained with DAPI. Thereafter, the number of viable cells were measured using an ImageXpress Micro Confocal (Molecular Device, LLC).
# [1] = test system: Novel coronavirus SARS-COV-2 Wk-521 strains (Wuhan strain); assay type: cell-based; conditions: for antiviral effect compared with the preparation / other alkaloids: Wuhan strain, VeroE6/TMPRSS2 cells
# SARS coronavirus = conditions: cited from earlier work
# [2] = test system: human coronavirus OC43 strain; conditions: early stage of infection in cells, MRC-5 human lung cells; cited from earlier work
Compound,cytotoxic effect (number of viable cells with increasing addition concentration) (VeroE6/TMPRSS2 cells),antiviral effect (number of viral RNA with increasing addition concentration) [1],antiviral effect compared with the preparation / other alkaloids [1],antiviral effect against the SARS coronavirus (SARS coronavirus),antiviral effects on the human coronavirus OC43 strain [2]
COc1ccc2cc1Oc1ccc(cc1)C[C@H]1c3cc(c(OC)cc3CCN1C)Oc1c(OC)c(OC)cc3c1[C@@H](C2)N(C)CC3 [Isotetrandrine],showed cytotoxic effects,showed antiviral effects,comparable to the Stephania cepharantha-derived alkaloid-containing preparation,,
COc1cc2c3c(c1OC)Oc1ccc(cc1)C[C@@H]1c4c(cc(OC)c(OC)c4Oc4ccc(cc4)C[C@H]3N(C)CC2)CCN1C [Cycleanine],showed cytotoxic effects,showed antiviral effects,comparable to the Stephania cepharantha-derived alkaloid-containing preparation,,
COc1cc2c3cc1Oc1c(OC)c(OC)cc4c1[C@@H](Cc1ccc(O)c(c1)Oc1ccc(cc1)C[C@@H]3N(C)CC2)N(C)CC4 [Berbamine],showed cytotoxic effects,showed antiviral effects,weak antiviral effect,,
COc1ccc2cc1Oc1ccc(cc1)C[C@H]1c3c(cc4c(c3Oc3cc5c(cc3OC)CCN(C)[C@@H]5C2)OCO4)CCN1C [Cepharanthine],showed cytotoxic effects,showed antiviral effects,comparable to the Stephania cepharantha-derived alkaloid-containing preparation,has an antiviral effect,have antiviral effects
